Measured values: patent US20250136581A1, “SUBSTITUTED TRIAZOLE DERIVATIVE, PREPARATION METHOD THEREFOR, PHARMACEUTICAL COMPOSITION THEREOF, AND USE THEREOF” (SHANGHAI SIMR BIOTECHNOLOGY CO., LTD., priority 2021, published 2025)

How the values were obtained:
[1] = tested on: α5-GABAA receptor; conditions: GABA 1 μM, highest concentration of L-655,708; cited from earlier work
[2] = Rat pharmacokinetic experiment; format: in vivo; conditions: 3 mg/kg; for Cmax: plasma
Method: The maximum plasma concentration (Cmax) in the rat pharmacokinetic experiment was used to evaluate the absorption of the compounds in rat in vivo. The experimental compound was dissolved and then orally administered by gavage (p.o.) to male SD rats. The rats were fasted overnight before drug administration, and blood was collected via venipuncture at 0.25, 0.5, 1, 2, 4, and 7 hours post dose. Approximately 100 μL blood was collected for each sample; at the same time, the whole brain was taken and homogenized with 3 times the amount of PBS for analysis. The […] method was used to determine drug concentrations in plasma and brain tissue, and the proportion of compounds entering the brain (B/P) was calculated based on the AUC of the compound. Pharmacokinetic parameters were calculated using Phoenix WinNonlin 7.0. The administration vehicle was 5% CMC-Na aqueous solution.

[3] = target: human α1β3γ2 receptors (Homo sapiens (Human), UniProt P14867+P18507); assay: 3H-flunitrazepam competition binding, human α1β3γ2 GABAA receptor; conditions: HEK293 cell membranes, 1 nM 3H-flunitrazepam; read-out: Ki α1
Method: (§1) The affinity of the compound to each subtype of GABAA receptor was determined by competing for the binding of ^3H-flunitrazepam to HEK293 cells stably expressing human α1β3γ2, α2β3γ2, α3β3γ2, and α5β3γ2 receptors.
(§2) The cells were suspended in 50 mM Tris-HCl buffer (pH=7.4), homogenized 10 times on ice with a homogenizer for 20 seconds, and centrifuged at 1000 g for 10 minutes at 4° C. The supernatant was collected, and the above steps were repeated. The supernatant was centrifuged at 4° C. (33800 g; Thermo, rotor: A27-8×50) for 60 minutes, and the precipitate was resuspended in Tris buffer (50 mM Tris-HCl, 10 mM MgCl2, 0.5 mM EDTA, 10% glycerol). Protein was measured (BCA method, Pierce), and 1 mL aliquots were prepared and stored at −80° C.
(§3) The radioligand competition binding assay was performed in a 200 μL system (96-well plate) containing 100 μL of cell membrane. The concentration of ^3H-flunitrazepam was 1 nM and the concentration of the test compound was in the range of […]. Flumazenil was used as a control. 1 μL of 2 mM flumazenil (final concentration […]) was added to the low signal control well (Low control, LC), and 1 μL of DMSO was added to the high signal control well (High control, HC). The final concentration of target membrane protein was […]. All test compound sample storage solutions were 10 mM. The working concentration of the samples was to dilute all the samples to 0.2 mM with DMSO, followed by 4-fold serial gradient dilutions for a total of 8 concentration gradients. The 96-well plate was sealed with a sealing film, and then incubated on a shaker at room temperature for 1 hour. At the same time, the GF/C filter plate was soaked in soaking buffer (0.3% PEI, stored at 4° C.) for at least 0.5 hours. After the binding incubation was completed, the cells were collected onto a GF/C filter plate using a cell harvester. The plate was washed four times with washing buffer (50 mM Tris-HCl, pH 7.4, stored at 4° C.). After drying in a 50° C. oven for 1 hour, the bottom of the dried GF/C filter plate was sealed. The residual radioactivity on the filter membrane was detected using liquid scintillation counting. 50 μL of scintillation fluid was added to each well, and the plate was sealed. The readings were taken using a Microbeta2. The inhibitory activity of the test sample on the binding of ^3H-flunitrazepam to GABAA receptor membrane proteins was calculated, and the IC50 of each test sample was calculated by dose-effect curve fitting (GraphPad Prism 5 software), and the Ki of the sample was calculated from the IC50, thus evaluating the binding ability of the sample to the various subtypes of GABAA receptors.

[4] = target: human α3β3γ2 receptors (Homo sapiens (Human), UniProt P18507+P34903); assay: 3H-flunitrazepam competition binding, human α3β3γ2 GABAA receptor; conditions: HEK293 cell membranes, 1 nM 3H-flunitrazepam; read-out: Ki α3
Method: as §1, §2, §3

[5] = target: human α5β3γ2 receptors (α5-GABAA receptor) (Homo sapiens (Human), UniProt P18507+P31644); assay: 3H-flunitrazepam competition binding, human α5β3γ2 GABAA receptor; conditions: HEK293 cell membranes, 1 nM 3H-flunitrazepam; read-out: α5-GABAAR Ki
Outline: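 Radioligand displacement of 1 nM 3H-flunitrazepam from membranes of HEK293 lines stably expressing the human subtypes, 1 h at room temperature, compound in 8-point 4-fold series. Bound label on GF/C filters counted by scintillation; Ki derived from fitted IC50, with flumazenil as low control.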

[6] = target: human α2β3γ2 receptors (Homo sapiens (Human), UniProt P18507+P47869); assay: 3H-flunitrazepam competition binding, human α2β3γ2 GABAA receptor; conditions: HEK293 cell membranes, 1 nM 3H-flunitrazepam; read-out: Ki α2
Method: as §1, §2, §3

[7] = target: α5-GABAA receptor (α5, β3, γ2 subunits) (Homo sapiens (Human), UniProt P18507+P31644); assay: Whole cell patch clamp, inverse agonist efficacy in HEK293 cells expressing α5-GABAA receptor; format: cell-based; conditions: HEK293, drug 100 nM, GABA 0.05 μM, −60 mV; read-out: Compound inverse agonist efficacy %
Outline: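 Compounds screened at 100 nM against current induced by 0.05 μM GABA in monoclonal HEK293 cells stably expressing α5β3γ2 GABAA receptors. Recording by whole-cell voltage clamp (−60 mV, pH 7.4 bath, CsCl pipette); efficacy calculated from leak-corrected currents before and after drug.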

Row | Kp ([2]; male, SD, rat, brain / plasma, po, read-out: B/P (proportion of compounds entering the brain)) | Cmax ([2]; rat, po, male SD rats) | Ki [3] | Ki [4] | Ki [5] | Ki [6] | inhibition at 0.1 µM [7] | B/P (proportion of compounds entering the brain) ([2]; male SD rats, p.o., based on AUC) | SMILES | suppression of the current induced by GABA [1]
1 | – | – | – | – | – | – | – | – | CCOC(=O)c1ncn2c1[C@@H]1CCCN1C(=O)c1cc(OC)ccc1-2 [L-655,708] | 15%
2 | 0.0166 | 3020 ng/mL | 389 nM | 68.7 nM | 5.39 nM | 231 nM | 42.3% | – | Cc1nnn(-c2ccc(C(F)F)cc2)c1COc1ccc(N2CC(C(=O)NC(C)C)C2)nn1 [Example 155, 1-(6-((1-(4-(Difluoromethyl)phenyl)-4-methyl-1H-1,2,3-triazol-5-yl)methoxy)pyridazin-3-yl)-N-isopropylazetidine-3-carboxamide] | –
3 | – | 3180 ng/mL | 73.5 nM | 26.3 nM | 1.11 nM | 27.2 nM | 40.5% | 3.81% | Cc1nnn(-c2ccc(C(F)F)cc2)c1COc1cnc(N2CCNC(=O)C2)cn1 [Example 169, 4-(5-((1-(4-(Difluoromethyl)phenyl)-4-methyl-1H-1,2,3-triazol-5-yl)methoxy)pyrazin-2-yl)piperazin-2-one] | –
